Data: patent publication US10787473B2, “PH responsive fluorescent compound, composition for detecting mitophagy using same, and method for detecting mitophagy within cells” (DOJINDO LABORATORIES, priority 2016, dated 2020)

What was measured:
[1] = test system: Parkin-non-expressed HeLa cells; assay: Confocal laser microscopic detection of mitophagy, CCCP induction; format: cell-based; details: 100 nmol/L, 10 μM/L CCCP for 24 hours
[2] = pH-dependent excitation and fluorescence spectra in buffer solution containing 50% acetonitrile; format: physicochemical
Method: To investigate a pH-dependent fluorescent emission of Compound 9, excitation spectra (“Excitation” in FIG. 1) and fluorescence spectra (“Fluorescence” in FIG. 1) were measured at pH 4.0 and 7.4 in buffer solution containing 50% acetonitrile.

HeLa cells = assay: Mitophagy detection test using HeLa cells (starvation induction), fluorescent microscope; format: cell-based; details: 100 nmol/L, 30 min, 1 μM Lyso Dye
Method: HeLa cells were seeded on a μ-slide 8 well (Ibidi) and incubated in a CO2 incubator at 37° C. overnight. Compound 9 diluted with Hanks' HEPES buffer (100 nmol/L) was added and incubated for 30 minutes. A starvation induction was carried out by washing cultured cells with Hanks' HEPES buffer twice follow by adding plasma-free Krebs' buffer containing 1 μM glucagon and 7.5 μM pepstatin A and incubating at 37° C. for appropriate period. Then, the cultured cells were observed by a fluorescent microscope. To confirm the uptake of Compound 9 in lysosomes, 1 μM Lyso Dye diluted with Hanks' HEPES buffer was added to the cultured cells and incubated at 37° C. for 30 minutes.

[3] = test system: Parkin-expressed HeLa cells; assay: Confocal laser microscopic detection of mitophagy, CCCP induction; format: cell-based; details: 100 nmol/L, 10 μM/L CCCP for 24 hours, 1 μM Lyso Dye
Text: Methods for inducing mitophagy include, in addition to a bulk method such as described in Example 3 above, a selective method mediated with Parkin gene and PINK1 enzyme. The latter involves Parkinson disease and the relationship with a quality control of dysfunctional mitochondria (For example, see Derek Narendra, Atsushi Tanaka, Der-Fen Suen and Richard J. Youle, J. Cell Biol., 2008, 183, 795-803.). To examine the mitochondria-selective detection of autophagy, Parkin-expressed HeLa cells were prepared and the mitophagy was induced by adding Compound 9 and carbonyl cyanide m-chlorophenyl hydrazone (CCCP), a mitochondrial uncoupler and incubating.
HeLa cells were seeded on a μ-slide 8 well (Ibidi) and incubated in a CO2 incubator at 37° C. overnight. Parkin plasmid was introduced using HilyMax (DOJINDO LABORATORIES) into the cells and the cells were incubated overnight. The cultured cells were washed with a plasma-containing medium, to which Compound 9 diluted with Hanks' HEPES buffer (100 nmol/L) was added and incubated for 30 minutes. After washing with the plasma-containing medium, the cells were cultured in a cell culture medium containing 10 μM/L of CCCP for 24 hours. After the occurrence of mitophagy was monitored by the fluorescent microscope, the cultured cells were further incubated with 1 μM Lyso Dye at 37° C. for 30 minutes.

[4] = test system: Parkin-expressed HeLa cells; assay: Flow cytometry (FCM) analysis of mitophagy, CCCP induction; format: cell-based; details: 100 nmol/L, 10 μM/L CCCP for 24 hours
Method: HeLa cells were seeded on a 24 well plate and incubated in a CO2 incubator at 37° C. overnight. Parkin plasmid was introduced using HilyMax (DOJINDO LABORATORIES) into the cells and the cells were further incubated overnight. The cultured cells were washed with a plasma-containing medium, to which Compound 9 diluted with Hanks' HEPES buffer (100 nmol/L) was added and incubated for 30 minutes. After washing with the plasma-containing medium, the cells were cultured in a cell culture medium containing 10 μM/L of CCCP for 24 hours. After washing with PBS, the cells were peeled off by trypsin and EDTA. The cells were collected by centrifuge, dispersed in 0.5 mL of HBSS and analyzed by FCM (BD FACS cant II).

[5] = Fluorescent intensity at various pH in buffer solution containing 50% DMSO; format: physicochemical
Method: The fluorescent intensities of Compound 9 at various pH were measured in buffer solution containing 50% DMSO. […] Such increase takes place at more acidic side than that of naphthyl imide-type pH-responsive fluorescent compound.

## O=C(CCN1C(=O)c2ccc3c4cccc5c(N6CCN(Cc7ccc(CCl)cc7)CC6)ccc(c6ccc(c2c36)C1=O)c54)NCC[P+](c1ccccc1)(c1ccccc1)c1ccccc1.[Br-] [Compound 9]
[1]
  fluorescence from compound: faint
[2]; buffer solution containing 50% acetonitrile, pH 4.0 vs 7.4
  fluorescent intensity at pH 4.0 compared with pH 7.4: higher than that at pH 7.4
[2]; pH 4.0 vs pH 7.4, buffer solution containing 50% acetonitrile
  shift of maximum fluorescent wavelength to short-wavelength side: 30 nm
[2]; polar solvent, leads to decrease of fluorescent intensity
  self-aggregation behaviour: tends to form a self-aggregate in a polar solvent
HeLa cells
  co-staining with Lyso Dye (uptake in lysosomes): collateral stain took place
[3]
  fluorescence from compound and co-staining with lysosome dye: is observed as well as the collateral stain with a lysosome dye (Lyso Dye) is observed
[4]
  increase of fluorescent emission on induction of mitophagy using CCCP: 1.3 times
[5]
  change of fluorescent intensity responding to pH: increases from a neutral region to an acidic region
